The record followed here is ChEMBL document CHEMBL1143690, “The effects of N-terminal part modification of arginine vasopressin analogues with 2-aminoindane-2-carboxylic acid: a highly potent V2 agonist” (J Med Chem, 2007).

Test [1] is filed under the species Rattus norvegicus. Briefly: In vitro uterotonic activity in Wistar rat oxytocic uterus in absence of Mg2+. The test is classed as functional. To be noted: for Kb: read-out: pA2 (converted).
Test [2] has as its system Rattus norvegicus. Briefly: Antidiuretic activity in sc dosed conscious Wistar rat in an antidiuresis time of t1/2 200 mins relative to AVP. The test is classed as functional.
For test [3], the species on record is Rattus norvegicus. Kind of test: Effect on arterial blood pressure in Wistar rat in pressor test. To be noted: for Kb: Rattus norvegicus, Wistar, Arterial blood, read-out: pA2 (converted). The test is classed as functional, organism-based.
Test [4] has as its system Rattus norvegicus. Briefly: Antidiuretic activity in sc dosed conscious Wistar rat in an antidiuresis time of t1/2 60 mins relative to AVP. The test is classed as functional.
Test [5] deals with Rattus norvegicus. Kind of test: Antidiuretic activity in sc dosed conscious Wistar rat in an antidiuresis time of t1/2 60 mins relative to dDAVP. The test is classed as functional.
The test system of test [6] is Rattus norvegicus. Briefly: Antidiuretic activity in sc dosed conscious Wistar rat in an antidiuresis time of t1/2 200 mins relative to dDAVP. The test is classed as functional.

Activity calls are given as the source filed them. The rule behind the calls is not given here. Positions of bridges follow the written chain, without caps; N, C: chain ends. Non-standard residues stand in square brackets, D forms with d. Residues, ends and D or L forms follow the SMILES beside them. Aic = NC1(C(=O)O)Cc2ccccc2C1

As to `NC(=O)CC[C@@H]1NC(=O)C2(Cc3ccccc3C2)NC(=O)[C@H](Cc2ccc(O)cc2)NC(=O)[C@H](N)CSSC[C@H](C(=O)N2CCC[C@H]2C(=O)N[C@H](CCCN=C(N)N)C(=O)NCC(N)=O)NC(=O)[C@H](CC(N)=O)NC1=O`, the result in the test filed under Rattus norvegicus [1], in the test on Rattus norvegicus [2] (Urine), in the test listed under Rattus norvegicus [3], in the test on Rattus norvegicus [4] (Urine), with Rattus norvegicus [5] (Urine) and with Rattus norvegicus [6] (Urine) was inactive.
As for `CC(C)[C@@H]1NC(=O)[C@H](Cc2ccccc2)NC(=O)C2(Cc3ccccc3C2)NC(=O)CCSSC[C@@H](C(=O)N2CCC[C@H]2C(=O)N[C@H](CCCN=C(N)N)C(=O)NCC(N)=O)NC(=O)[C@H](CC(N)=O)NC1=O` [listing 1 of 2 here], the Activity with Rattus norvegicus [2] amounted to 450000 IU/mg; in the test with Rattus norvegicus [4], 4500 IU/mg; in the test with Rattus norvegicus [5], 50%; in the test with Rattus norvegicus [6] it was 100%.
As for `NC(=O)CC[C@@H]1NC(=O)[C@H](Cc2ccccc2)NC(=O)C2(Cc3ccccc3C2)NC(=O)CCSSC[C@@H](C(=O)N2CCC[C@H]2C(=O)N[C@@H](CCCN=C(N)N)C(=O)NCC(N)=O)NC(=O)[C@H](CC(N)=O)NC1=O` [listing 1 of 2 here], in the test listed under Rattus norvegicus [1], the Kb was 31.6 nM.
Same read-out and setting: the figure for `NC(=O)CC[C@@H]1NC(=O)[C@H](Cc2ccccc2)NC(=O)C2(Cc3ccccc3C2)NC(=O)[C@@H](N)CSSC[C@@H](C(=O)N2CCC[C@H]2C(=O)N[C@@H](CCCN=C(N)N)C(=O)NCC(N)=O)NC(=O)[C@H](CC(N)=O)NC1=O` [listing 1 of 2 here] is 53.7 nM.
As to `NC(=O)CC[C@@H]1NC(=O)[C@H](Cc2ccccc2)NC(=O)C2(Cc3ccccc3C2)NC(=O)CCSSC[C@@H](C(=O)N2CCC[C@H]2C(=O)N[C@H](CCCN=C(N)N)C(=O)NCC(N)=O)NC(=O)[C@H](CC(N)=O)NC1=O` [listing 1 of 2 here], the Activity in the test with Rattus norvegicus [2] is reported as 45000 IU/mg; with Rattus norvegicus [4], 450 IU/mg; in the test with Rattus norvegicus [5], 10%; in the test with Rattus norvegicus [6], 10%.
Consider `NC(=O)CC[C@@H]1NC(=O)[C@H](Cc2ccccc2)NC(=O)C2(Cc3ccccc3C2)NC(=O)CCSSC[C@@H](C(=O)N2CCC[C@H]2C(=O)N[C@H](CCCN=C(N)N)C(=O)NCC(N)=O)NC(=O)[C@H](CC(N)=O)NC1=O` [listing 2 of 2 here], for which the Kb in the test filed under Rattus norvegicus [1] is 49 nM; in the test listed under Rattus norvegicus [3], 2510 nM.
Taken in the same sequence, the figures for `CC(C)[C@@H]1NC(=O)[C@H](Cc2ccccc2)NC(=O)C2(Cc3ccccc3C2)NC(=O)CCSSC[C@@H](C(=O)N2CCC[C@H]2C(=O)N[C@H](CCCN=C(N)N)C(=O)NCC(N)=O)NC(=O)[C@H](CC(N)=O)NC1=O` [listing 2 of 2 here] were 8.71 nM and 562 nM.
With `NC(=O)CC[C@@H]1NC(=O)[C@H](Cc2ccccc2)NC(=O)C2(Cc3ccccc3C2)NC(=O)[C@@H](N)CSSC[C@@H](C(=O)N2CCC[C@H]2C(=O)N[C@H](CCCN=C(N)N)C(=O)NCC(N)=O)NC(=O)[C@H](CC(N)=O)NC1=O` [listing 1 of 2 here], the Kb in the test listed under Rattus norvegicus [1] is 138 nM.
As for `NC(=O)CC[C@@H]1NC(=O)[C@H](Cc2ccccc2)NC(=O)C2(Cc3ccccc3C2)NC(=O)CCSSC[C@@H](C(=O)N2CCC[C@H]2C(=O)N[C@@H](CCCN=C(N)N)C(=O)NCC(N)=O)NC(=O)[C@H](CC(N)=O)NC1=O` [listing 2 of 2 here], the Activity is given as 45000 IU/mg with Rattus norvegicus [2]; 5.3 IU/mg in the test filed under Rattus norvegicus [3]; 450 IU/mg in the test with Rattus norvegicus [4]; 10% in the test on Rattus norvegicus [5]; 10% in the test with Rattus norvegicus [6].
In the case of `NC(=O)CC[C@@H]1NC(=O)C2(Cc3ccccc3C2)NC(=O)[C@H](Cc2ccc(O)cc2)NC(=O)CCSSC[C@H](C(=O)N2CCC[C@H]2C(=O)N[C@@H](CCCN=C(N)N)C(=O)NCC(N)=O)NC(=O)[C@H](CC(N)=O)NC1=O`, the outcome in the test filed under Rattus norvegicus [1], with Rattus norvegicus [2] (Urine), in the test listed under Rattus norvegicus [3], in the test on Rattus norvegicus [4] (Urine), with Rattus norvegicus [5] (Urine) and in the test on Rattus norvegicus [6] (Urine) was inactive.
As for `NC(=O)CC[C@@H]1NC(=O)C2(Cc3ccccc3C2)NC(=O)[C@H](Cc2ccc(O)cc2)NC(=O)[C@H](N)CSSC[C@H](C(=O)N2CCC[C@H]2C(=O)N[C@@H](CCCN=C(N)N)C(=O)NCC(N)=O)NC(=O)[C@H](CC(N)=O)NC1=O`, the result in the test filed under Rattus norvegicus [1], in the test on Rattus norvegicus [2] (Urine), in the test listed under Rattus norvegicus [3], with Rattus norvegicus [4] (Urine), with Rattus norvegicus [5] (Urine) and with Rattus norvegicus [6] (Urine) was inactive.
Regarding `CC(C)[C@@H]1NC(=O)[C@H](Cc2ccccc2)NC(=O)C2(Cc3ccccc3C2)NC(=O)[C@@H](N)CSSC[C@@H](C(=O)N2CCC[C@H]2C(=O)N[C@@H](CCCN=C(N)N)C(=O)NCC(N)=O)NC(=O)[C@H](CC(N)=O)NC1=O` (H-C[Aic]FVNCPRG-NH2; disulfide 1-6) [listing 1 of 2 here], the Kb in the test listed under Rattus norvegicus [1] is 11.7 nM.
Turning to `NC(=O)CC[C@@H]1NC(=O)[C@H](Cc2ccccc2)NC(=O)C2(Cc3ccccc3C2)NC(=O)[C@@H](N)CSSC[C@@H](C(=O)N2CCC[C@H]2C(=O)N[C@H](CCCN=C(N)N)C(=O)NCC(N)=O)NC(=O)[C@H](CC(N)=O)NC1=O` [listing 2 of 2 here], the Activity is listed as 4500 IU/mg in the test with Rattus norvegicus [2]; 0 IU/mg in the test listed under Rattus norvegicus [3]; 45 IU/mg in the test with Rattus norvegicus [4]; 1% in the test with Rattus norvegicus [5]; 1% with Rattus norvegicus [6].
Turning to `CC(C)[C@@H]1NC(=O)[C@H](Cc2ccccc2)NC(=O)C2(Cc3ccccc3C2)NC(=O)[C@@H](N)CSSC[C@@H](C(=O)N2CCC[C@H]2C(=O)N[C@@H](CCCN=C(N)N)C(=O)NCC(N)=O)NC(=O)[C@H](CC(N)=O)NC1=O` (H-C[Aic]FVNCPRG-NH2; disulfide 1-6) [listing 2 of 2 here], the Activity in the test on Rattus norvegicus [2] is 45000 IU/mg; in the test listed under Rattus norvegicus [3] it was 0 IU/mg; in the test on Rattus norvegicus [4], 450 IU/mg; in the test on Rattus norvegicus [5], 10%; with Rattus norvegicus [6] it was 10%.
On to `NC(=O)CC[C@@H]1NC(=O)[C@H](Cc2ccccc2)NC(=O)C2(Cc3ccccc3C2)NC(=O)[C@@H](N)CSSC[C@@H](C(=O)N2CCC[C@H]2C(=O)N[C@@H](CCCN=C(N)N)C(=O)NCC(N)=O)NC(=O)[C@H](CC(N)=O)NC1=O` [listing 2 of 2 here], for which the Activity worked out at 45000 IU/mg with Rattus norvegicus [2]; 9.4 IU/mg in the test filed under Rattus norvegicus [3]; 450 IU/mg in the test with Rattus norvegicus [4]; 10% in the test on Rattus norvegicus [5]; 10% in the test with Rattus norvegicus [6].
`CC(C)[C@@H]1NC(=O)[C@H](Cc2ccccc2)NC(=O)C2(CCCCC2)NC(=O)CCSSC[C@@H](C(=O)N2CCC[C@H]2C(=O)N[C@H](CCCN=C(N)N)C(=O)NCC(N)=O)NC(=O)[C@H](CC(N)=O)NC1=O`: the Kb in the test filed under Rattus norvegicus [1] is 15.5 nM; in the test filed under Rattus norvegicus [3], 724 nM. Also, the Activity worked out at 50000 IU/mg with Rattus norvegicus [2], 4500 IU/mg in the test with Rattus norvegicus [4], 50% in the test on Rattus norvegicus [5] and 10% in the test with Rattus norvegicus [6].
